{"source": "ChEMBL document CHEMBL1157971", "about": "“Euphoportlandols A and B, tetracylic diterpene polyesters from Euphorbia portlandica and their anti-MDR effects in cancer cells” (J Nat Prod, 2006)", "type_in_all_cases": "cell-based", "key": {"[1]": {"target": "T1, ATP-dependent translocase ABCB1 (Homo sapiens, UniProt P08183)", "T1 sequence (P08183 whole entry)": "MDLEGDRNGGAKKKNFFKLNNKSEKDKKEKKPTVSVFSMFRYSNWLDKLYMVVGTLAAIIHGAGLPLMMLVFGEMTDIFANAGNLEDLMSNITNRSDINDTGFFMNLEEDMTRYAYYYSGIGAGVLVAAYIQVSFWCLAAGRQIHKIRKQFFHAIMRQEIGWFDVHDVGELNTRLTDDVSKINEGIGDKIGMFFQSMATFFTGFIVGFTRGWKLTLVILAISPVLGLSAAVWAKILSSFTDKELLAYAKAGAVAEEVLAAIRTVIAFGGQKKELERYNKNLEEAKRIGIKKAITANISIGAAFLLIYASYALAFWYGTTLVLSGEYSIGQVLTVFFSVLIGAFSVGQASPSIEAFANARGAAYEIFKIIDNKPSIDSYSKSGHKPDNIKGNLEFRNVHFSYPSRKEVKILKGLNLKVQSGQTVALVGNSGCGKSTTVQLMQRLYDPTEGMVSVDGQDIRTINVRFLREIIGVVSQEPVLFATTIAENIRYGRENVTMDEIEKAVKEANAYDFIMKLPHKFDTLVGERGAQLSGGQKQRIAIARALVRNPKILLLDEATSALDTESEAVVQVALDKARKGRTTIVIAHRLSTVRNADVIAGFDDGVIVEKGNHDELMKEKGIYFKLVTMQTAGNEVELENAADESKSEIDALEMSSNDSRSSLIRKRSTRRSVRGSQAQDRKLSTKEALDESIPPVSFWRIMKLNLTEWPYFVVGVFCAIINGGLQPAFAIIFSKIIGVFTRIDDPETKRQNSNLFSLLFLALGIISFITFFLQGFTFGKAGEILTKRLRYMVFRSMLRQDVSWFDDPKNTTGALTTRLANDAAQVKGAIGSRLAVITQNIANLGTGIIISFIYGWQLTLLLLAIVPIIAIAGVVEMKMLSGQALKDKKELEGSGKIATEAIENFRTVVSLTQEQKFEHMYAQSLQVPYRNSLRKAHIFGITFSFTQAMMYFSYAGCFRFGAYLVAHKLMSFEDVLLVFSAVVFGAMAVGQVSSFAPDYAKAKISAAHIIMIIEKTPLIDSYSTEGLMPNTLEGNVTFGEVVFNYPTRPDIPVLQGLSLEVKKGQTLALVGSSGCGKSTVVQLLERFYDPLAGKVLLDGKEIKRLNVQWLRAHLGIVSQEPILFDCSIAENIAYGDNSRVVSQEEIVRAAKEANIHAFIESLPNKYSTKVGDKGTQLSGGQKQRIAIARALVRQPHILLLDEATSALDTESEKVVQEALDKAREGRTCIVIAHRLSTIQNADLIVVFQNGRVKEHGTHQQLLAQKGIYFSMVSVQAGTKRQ", "test": "Inhibition of human MDR1-mediated rhodamine efflux in mouse L5178 cells assessed as mean fluorescence intensity at 4 ug/mL by flow cytometry"}, "[2]": {"target": "T1, ATP-dependent translocase ABCB1", "test": "Inhibition of human MDR1-mediated rhodamine efflux in mouse L5178 cells assessed as fluorescence activity ratio at 4 ug/mL by flow cytometry relative to untreated control"}, "[3]": {"target": "T1, ATP-dependent translocase ABCB1", "test": "Inhibition of human MDR1-mediated rhodamine efflux in mouse L5178 cells assessed as mean fluorescence intensity at 40 ug/mL by flow cytometry"}, "[4]": {"target": "T1, ATP-dependent translocase ABCB1", "test": "Inhibition of human MDR1-mediated rhodamine efflux in mouse L5178 cells assessed as fluorescence activity ratio at 40 ug/mL by flow cytometry relative to untreated control"}}, "data": [{"smiles": "CC(=O)OC1[C@]2(O)CC3=C([C@H](OC(C)=O)C(C)(C)C3=O)[C@@]1(C)[C@@H](OC(C)=O)[C@@]1(O)C[C@H](C)[C@H](OC(=O)c3ccccc3)[C@@H]1[C@H]2OC(C)=O", "note": "(stereo partly drawn) [EUPHOPORTLANDOL A]", "values": [{"measurement": "Flu intensity", "setting": "[1]", "value": 49.8}, {"measurement": "Ratio", "setting": "[2]", "value": 2.3}, {"measurement": "Flu intensity", "setting": "[3]", "value": 880.2}, {"measurement": "Ratio", "setting": "[4]", "value": 40.3}]}, {"smiles": "CC(=O)OC1[C@@]2(C)[C@@H]3[C@@H](C[C@]1(O)[C@H](OC(C)=O)[C@H]1[C@@H](OC(=O)c4ccccc4)[C@@H](C)C[C@]1(O)[C@@H]2OC(C)=O)C(=O)C(C)(C)[C@H]3OC(C)=O", "note": "(stereo partly drawn) [EUPHOPORTLANDOL B]", "values": [{"measurement": "Flu intensity", "setting": "[1]", "value": 30.8}, {"measurement": "Ratio", "setting": "[2]", "value": 1.4}, {"measurement": "Flu intensity", "setting": "[3]", "value": 670.5}, {"measurement": "Ratio", "setting": "[4]", "value": 30.7}]}]}
